Literature values, collected in patent US9817001B2, “Methods for determining LDL cholesterol treatment” (Boston Heart Diagnostics Corporation, priority 2008, dated 2017).

Tested on: HDL particle profile (α-1 HDL, preβ-1 HDL)
Details: for effect on preβ-1 HDL level: by decreasing CETP activity; for effect on apoA-I kinetics: in vivo

SMILES | statin effectiveness to change the HDL particle profile beneficially (statin therapy, decreasing pre-β1 and increasing α-1) | effect on preβ-1 HDL level | effect on apoA-I kinetics
CC[C@H](C)C(=O)O[C@H]1C[C@@H](C)C=C2C=C[C@H](C)[C@H](CC[C@@H]3C[C@@H](O)CC(=O)O3)[C@H]21 [lovastatin] | almost no change | – | –
CC(C)c1c(C(=O)Nc2ccccc2)c(-c2ccccc2)c(-c2ccc(F)cc2)n1CC[C@@H](O)C[C@@H](O)CC(=O)O [atorvastatin] | – | significantly decrease | little or no effect
CC(C)c1nc(N(C)S(C)(=O)=O)nc(-c2ccc(F)cc2)c1/C=C/[C@@H](O)C[C@@H](O)CC(=O)O [Rosuvastatin, rosuvastatin] | – | significantly decrease | little or no effect
